± gives the expanded uncertainty stated by the source.
Details: 101.33 kPa, Liquid; for speed of sound: Light diffraction method; for thermal diffusivity: Optical interferometry

| SMILES | speed of sound (293.15 K) [m/s] | thermal diffusivity (293.15 K) [m2/s] | speed of sound (298.15 K) [m/s] | thermal diffusivity (298.15 K) [m2/s] |
| --- | --- | --- | --- | --- |
| CCn1cc[n+](C)c1.O=S(=O)([N-]S(=O)(=O)C(F)(F)F)C(F)(F)F | 1240 ± 10 | 6.01e-08 ± 2.9e-09 |  |  |
| CCCCCn1cc[n+](C)c1.O=S(=O)([N-]S(=O)(=O)C(F)(F)F)C(F)(F)F |  |  | 1227 ± 7 | 5.8e-08 ± 3e-09 |
| CCCCCC[n+]1ccn(C)c1.O=S(=O)([N-]S(=O)(=O)C(F)(F)F)C(F)(F)F | 1232 ± 11 | 6.06e-08 ± 3.2e-09 |  |  |
| CCCCCCCCn1cc[n+](C)c1.O=S(=O)([N-]S(=O)(=O)C(F)(F)F)C(F)(F)F | 1232 ± 11 | 6.1e-08 ± 5e-09 |  |  |
| CCCC[n+]1ccn(C)c1.O=S(=O)([N-]S(=O)(=O)C(F)(F)F)C(F)(F)F | 1227 ± 13 | 6e-08 ± 3e-09 |  |  |
| CCCCn1cc[n+](C)c1.F[B-](F)(F)F [1-butyl-3-methylimidazolium tetrafluoroborate] | 1564 ± 10 | 8.6e-08 ± 4e-09 |  |  |
| CCCCn1cc[n+](C)c1.F[P-](F)(F)(F)(F)F [1-butyl-3-methylimidazolium hexafluorophosphate] | 1441 ± 11 | 7.5e-08 ± 5e-09 |  |  |
